Test [1] relates to hair follicles of alopecia-induced C57BL/6 mice. The test can be described thus: Histological change in mouse hair follicles (hematoxylin-eosin staining). Conditions: skin tissue collected at week 5, H&E, optical microscope, FIGS. 5a-b. The format is in vivo. The method, then: (§1) The animal experiment was carried out in compliance with the Animal use and Care Protocol of the Institutional Animal Care and Use Committee (IACUC). Seven-week-old male C57BL/6 mice were purchased and acclimated for 1 week, and then bred for 5 weeks. Regarding the breeding environment, the mice were bred at a constant temperature (22° C.) and relative humidity (40% to 60%) with a 12-hr light/12-hr dark cycle. A chow diet was fed to all experimental groups. […] In order to make an alopecia model, 0.5 mg/day of testosterone was subcutaneously injected to mice in all experimental groups. A group in which alopecia was induced by testosterone administration was used as a negative control group, and finasteride was orally administered at 0.5 mg/kg/day as a positive control group. In the groups in which live bacteria and killed bacteria of the genus Akkermansia of the present invention are administrated, PBS containing L-cysteine and glycerol was orally administered as a vehicle. [table] In order to confirm the morphological change of male C57BL/6 mouse hair follicles, skin tissues collected at week 5 after transdermal administration were stained with hematoxylin-eosin and observed with an optical microscope to confirm the number of hair follicles, and the results are shown in FIGS. 5a and 5b.

Test [2] has as its system alopecia-induced mice (testosterone). The test can be described thus: Hair growth length increase effect. Format: in vivo, C57BL/6 mice. Conditions: after the 5-week experiment, average per group, FIGS. 2a-b. On the procedure:
as §1, with “[table] After the 5-week experiment was completed, the hair length was measured for individuals in each experimental group” for “[table] In order”, “to calculate” for “to confirm the morphological change of male C57BL/6 mouse hair follicles, skin tissues collected at week 5 after transdermal administration were stained with hematoxylin-eosin and observed with”, “an average value,” for “an optical microscope to confirm the number of hair follicles,”, “results of the hair growth length increase effect experiment” for “results”, “shown as a graph” for “shown”, “in FIG. 2.” for “in FIGS. 5a and 5b.”

For test [3] the test system is unchanged. The test can be described thus: Confirmation of mouse hair growth through photograph. The format is in vivo. To be noted: testosterone 0.5 mg/day s.c. alopecia model, male C57BL/6 mice, daily treatment for 5 weeks, FIG. 1. On the procedure: The animal experiment was carried out in compliance with the Animal use and Care Protocol of the Institutional Animal Care and Use Committee (IACUC). Seven-week-old male C57BL/6 mice were purchased and acclimated for 1 week, and then bred for 5 weeks. Regarding the breeding environment, the mice were bred at a constant temperature (22° C.) and relative humidity (40% to 60%) with a 12-hr light/12-hr dark cycle. A chow diet was fed to all experimental groups.
In order to make an alopecia model, 0.5 mg/day of testosterone was subcutaneously injected to mice in all experimental groups. A group in which alopecia was induced by testosterone administration was used as a negative control group, and finasteride was orally administered at 0.5 mg/kg/day as a positive control group. In the groups in which live bacteria and killed bacteria of the genus Akkermansia of the present invention are administrated, PBS containing L-cysteine and glycerol was orally administered as a vehicle.
For the mice in each experimental group, the degree of hair growth was observed through photographing hair. […] From the left side, there are the results of the negative control group (Testosterone), the positive control group (T+Finasteride), the Akkermansia muciniphila live bacteria-administered group (T+EB-AMDK19), and the Akkermansia muciniphila killed bacteria-administered group (T+EB-AMDK19 HI). […]

On to `CC(C)(C)NC(=O)[C@H]1CC[C@H]2[C@@H]3CC[C@H]4NC(=O)C=C[C@]4(C)[C@H]3CC[C@]12C` [finasteride], for which, in test [1], the “number of telogen hair follicles compared to the negative control group” value was “increased”. Besides, the “hair length, comparison between treated groups” value in test [2] was “showed similar patterns”. Further, in test [3], the “hair growth / regrowth in hair loss regions (photograph)” value was “almost all regions thereof were changed to black at week 5” and the “skin color change in hair loss regions of the back (photograph)” value is “skin color was darkened from week 3 of treatment”.

Values taken from patent US20250387437A1, “PHARMACEUTICAL COMPOSITION FOR PREVENTING OR TREATING ALOPECIA INCLUDING AKKERMANSIA” (priority 2022, published 2025).
